Read-outs that look alike come from different tables or passages of the source. Each block holds one molecule with its values, some of them ahead of it.
Tests used:
hPPARγ = molecular target: T1, hPPARγ (Homo sapiens, UniProt P37231); experiment: CV-1 PPRE×3 TK-Luciferase transient transfection assay; assay type: cell-based; conditions: for activation of PPARγ reporter gene expression compared with vehicle control: 1 and 3 μM, CV-1 cells, PPRE reporter; for PPARγ-dependent reporter gene expression by LNO2 decay products, oxidized linoleic acid derivatives and •NO donors: PPARγ-transfected CV-1 cells, FIG. 8C
T1 construct: For assessing full-length PPAR receptors, CV-1 cells were transiently co-transfected; expressed in transfected cells; host or cells: CV-1 cells
T1 sequence (P37231 1-505): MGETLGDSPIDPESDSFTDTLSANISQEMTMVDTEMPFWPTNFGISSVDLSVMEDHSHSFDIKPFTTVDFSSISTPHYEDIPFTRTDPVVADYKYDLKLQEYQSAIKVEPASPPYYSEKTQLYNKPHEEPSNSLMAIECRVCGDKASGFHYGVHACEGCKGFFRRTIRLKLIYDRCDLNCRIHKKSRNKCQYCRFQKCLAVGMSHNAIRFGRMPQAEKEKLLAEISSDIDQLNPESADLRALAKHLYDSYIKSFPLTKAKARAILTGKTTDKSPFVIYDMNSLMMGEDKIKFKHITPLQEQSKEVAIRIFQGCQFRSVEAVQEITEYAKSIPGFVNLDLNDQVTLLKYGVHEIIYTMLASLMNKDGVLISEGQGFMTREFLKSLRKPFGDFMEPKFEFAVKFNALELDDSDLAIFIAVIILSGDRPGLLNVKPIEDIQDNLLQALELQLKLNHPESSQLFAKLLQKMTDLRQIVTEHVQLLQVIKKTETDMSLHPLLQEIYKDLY
Source text: Cell Transient Transfection Assay. […] Then, cells were transiently co-transfected with a plasmid containing the luciferase gene under regulation by four Gal4 DNA binding elements (UASG×4 TK-Luciferase, a gift from Dr. Ronald M. Evans), in concert with plasmids containing the ligand binding domain for the different nuclear receptors fused to the Gal4 DNA binding domain. For assessing full-length PPAR receptors, CV-1 cells were transiently co-transfected with a plasmid containing the luciferase gene under the control of three tandem PPAR response elements (PPRE) (PPRE×3 TK-Luciferase) and hPPARγ, hPPARα or hPPARδ expression plasmids, respectively. In all cases, fluorescence protein (GFP) expression plasmid was co-transfected as the control for the transfection efficiency. Twenty-four hours after the transfection, cells were cultured for another 24 hours in Optium-MEM (Invitrogen, Carlsbad, Calif.). Then, cells were treated with different compounds as indicated in figures for 24 hours in Optium-MEM. Reporter luciferase assay kits from Promega (Madison, Wis.) were used to measure the luciferase activity according to the manufacturer's instructions with a luminometer (Victor II, Perkin-Elmer). Luciferase activity was normalized by GFP units. Each condition was performed at least in triplicates in each experiment.
PPAR transient transfection assay. […] Twelve hours before transfection, the media was removed and antibiotic-free media was applied. Cells were transiently co-transfected with a plasmid containing the luciferase gene under the control of three tandem PPAR response elements (PPRE) (PPRE×3 TK-Luciferase) and PPARγ, PPARα or PPARδ expression plasmids, respectively. In all cases, fluorescence protein (GFP) expression plasmid was co-transfected as the control for transfection efficiency. Twenty-four hours after transfection, cells the returned to OptiMEM (Invitrogen, Carlsbad, Calif.) for 24 hr and then treated as indicated for another 24 hr. Reporter luciferase assay kits from Promega (Madison, Wis.) were used to measure the luciferase activity according to the manufacturer's instructions with a luminometer (Victor II, Perkin-Elmer). Luciferase activity was normalized by GFP units. Each condition was performed in triplicate in each experiment (n>3).

Human PPARγ1 (GST-PPARγ) [1] = molecular target: T2, Human PPARγ1 (GST-PPARγ) (Homo sapiens, UniProt P37231); experiment: PPARγ competition binding assay ([^3H]Rosiglitazone displacement); conditions: calculated / estimated
T2 sequence (P37231 1-477 isoform P37231-2): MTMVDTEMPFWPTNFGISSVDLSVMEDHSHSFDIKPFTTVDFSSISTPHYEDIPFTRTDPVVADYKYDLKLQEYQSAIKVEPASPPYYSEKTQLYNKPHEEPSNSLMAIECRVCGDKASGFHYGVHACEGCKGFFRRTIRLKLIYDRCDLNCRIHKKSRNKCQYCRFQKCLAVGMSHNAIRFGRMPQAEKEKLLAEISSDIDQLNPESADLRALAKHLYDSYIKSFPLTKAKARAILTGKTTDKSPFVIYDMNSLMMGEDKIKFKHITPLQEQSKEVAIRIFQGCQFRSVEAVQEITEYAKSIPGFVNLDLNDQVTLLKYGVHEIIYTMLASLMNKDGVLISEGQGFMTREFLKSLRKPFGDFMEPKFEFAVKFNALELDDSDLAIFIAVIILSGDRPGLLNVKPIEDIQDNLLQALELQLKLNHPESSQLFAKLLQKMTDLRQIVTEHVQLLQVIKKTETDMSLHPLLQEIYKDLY
Method: PPARγ Competition Binding Assay. Human PPARγ1 cDNA was inserted into pGEX from Amersham Biosciences Corp (Piscataway, N.J.) containing the gene encoding glutathione S-transferase (GST). GST-PPARγ protein induction and receptor binding was assessed as previously described (17).

[2] = system: human vascular endothelial cells and macrophages; experiment: Whole Human Genome Oligo Array gene expression; assay type: cell-based; conditions: 24 hours; LNO2O 2.5 mM, linoleic acid 2.5 μM
Method: The nitroalkenes of the present invention also display regulatory actions towards the expression of genes related to inflammatory responses, cell growth, cell differentiation, cell signaling, cell death (apoptosis) and metabolism. For example, nitrolinoleate regulates gene expression in human vascular endothelial cells and macrophages. Cells were stimulated with vehicle and linoleic acid (2.5 μM, the latter two treatments as controls) and LNO2O ([…]) for 24 hours. The total RNA was purified with a Qiagen Kit and analyzed with a Whole Human Genome Oligo Array (G4112A, 41K Genes, Agilent). […] In contrast, the native (precursor) fatty acid, linoleic acid, only regulates 14 genes, with an up-regulation of 5 genes and the down-regulation of 9 genes.

NF-kB pathways = experiment: NF-kB pathway activity (NFkB-response element luciferase reporter, IkB degradation); assay type: cell-based; conditions: reporter in response to TNFa; IkB degradation in response to E. coli LPS
Human PPARγ1 (GST-PPARγ) [3] = molecular target: T2, Human PPARγ1 (GST-PPARγ); conditions: read-out: previously reported Ki for PPARγ; cited from earlier work

Compound: CCCCCCCCCCCCCCCCOC[C@H](COP(=O)([O-])OCC[N+](C)(C)C)OC(=O)CCCCCCCC(=O)O [azPC, 1-O-hexadecyl-2-azelaoyl-sn-glycero-3-phosphocholine]
activation of PPARγ reporter gene expression compared with vehicle control (hPPARγ): no significant activation

Compound: CCCCCCCCCCCCCCCC(=O)OC[C@H](COP(=O)([O-])OCC[N+](C)(C)C)OC(=O)CCCCCCCC(=O)O [azPC ester, 1-Palmitoy-2-Azelaoyl-sn-Glycero-3-Phosphocholine]
activation of PPARγ reporter gene expression compared with vehicle control (hPPARγ): no significant activation

Compound: CCCCC/C=C\C=C\C(=O)CCCCCCCC(=O)O [9-oxoODE]
PPARγ-dependent reporter gene expression by LNO2 decay products, oxidized linoleic acid derivatives and •NO donors (hPPARγ): modest PPARγ activation

Compound: CCCCCCCCC=CCCCCCCCC(=O)O [oleic acid, 9-Octadecenoic acid, reference compound]
adipogenesis / adipocyte differentiation (morphology, oil red O) (3T3-L1 preadipocytes; two weeks, Rosiglitazone 3 μM, linoleic acid 10 μM, oleic acid 3 μM): did not induce adipogenesis

Compound: CCCCCC(=O)/C=C/C=C\CCCCCCCC(=O)O [13-oxoODE]
PPARγ-dependent reporter gene expression by LNO2 decay products, oxidized linoleic acid derivatives and •NO donors (hPPARγ): no effect

The next lines start with results.

activation of PPARγ reporter gene expression compared with vehicle control (hPPARγ): no significant activation
Ki (Human PPARγ1 (GST-PPARγ) [1]): > 1 µM
activity of NF-kB pathways (NF-kB pathways): not
Compound: CCCCC/C=C\C/C=C\CCCCCCCC(=O)O [linoleic acid, reference compound]
number of genes down-regulated [2]: 9 genes
number of genes regulated [2]: 14 genes
number of genes up-regulated [2]: 5 genes
Ki (Human PPARγ1 (GST-PPARγ) [3]): 1.7 to 17 µM
expression of adipocyte markers (PPARγ2 and aP2) (3T3-L1 preadipocytes; immunoblot of cell lysate): not detected

activation of PPARγ reporter gene expression compared with vehicle control (hPPARγ): no significant activation
Compound: CCCCCCCC/C=C\CCCCCCCCOC[C@@H](O)COP(=O)(O)O [LPA-18:1, 1-O-9-(Z)-octadecenyl-2-hydroxy-sn-glycero-3-phosphate]

activation of PPARγ reporter gene expression compared with vehicle control (hPPARγ): no significant activation
Compound: CCCCCC=CC=CCCCCCCCCC(=O)O [CLA2, Δ^10,12-conjugated linoleic acid]

activation of PPARγ reporter gene expression compared with vehicle control (hPPARγ): no significant activation
Compound: CCCCCCC=CC=CCCCCCCCC(=O)O [CLA1, Δ^9,11-conjugated linoleic acid]

From US9867795B2, “Nitrated lipids and methods of making and using thereof” (The UAB Research Foundation, priority 2004, dated 2018)
